Results taken from article PMC6135396, “Repurposing antimalarial aminoquinolines and related compounds for treatment of retinal neovascularization” (PLoS ONE, 2018).
Like-named read-outs stand apart in the source and are kept apart here.

Key:
APJ = molecular target: T1, APJ (Homo sapiens, UniProt P35414); assay: APJ cAMP assay (primary, cAMP HitHunter, CHO-K1-APJ cells); type: cell-based; parameters: host or cells: CHO-K1 (CHO-K1-APJ / CHO-k1-AGTRL1)
T1 sequence (P35414 1-380): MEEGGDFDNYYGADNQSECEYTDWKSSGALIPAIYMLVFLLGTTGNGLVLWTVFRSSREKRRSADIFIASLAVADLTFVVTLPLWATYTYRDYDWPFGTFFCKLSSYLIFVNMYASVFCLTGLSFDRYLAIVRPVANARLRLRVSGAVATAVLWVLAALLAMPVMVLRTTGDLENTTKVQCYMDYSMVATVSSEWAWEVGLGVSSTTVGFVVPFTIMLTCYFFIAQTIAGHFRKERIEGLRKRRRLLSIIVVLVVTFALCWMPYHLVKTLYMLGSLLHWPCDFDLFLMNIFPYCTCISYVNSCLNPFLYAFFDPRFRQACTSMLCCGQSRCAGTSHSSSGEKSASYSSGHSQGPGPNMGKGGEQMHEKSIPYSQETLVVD
Description: (§1) To identify small-molecule antagonists of the apelin receptor (APJ) we interrogated the SBP compound file of ~425,000 compounds using CHO-k1-AGTRL1 cells overexpressing human APJ and a competitive immunoassay of intracellular cAMP [59]. The compound file was screened at a concentration of 10 μM. For all 333 plates assayed, the average Z-factor = 0.68 and the average S/B = 8.2, indicating a robust assay performance. […] There were 2550 compounds that met this criterion, representing a hit rate of ~0.6%. […] Included in this hit set was a series of aminoquinolines, exemplified by compound 1 (Fig 1B). […] As part of an initial hit-validation strategy, these compounds and three other commercially available analogs were purchased for further testing. The purity and identify of all compounds were confirmed by NMR and LC-MS, and they were subsequently retested in a battery of cell-based assays of APJ function and counter screens. […] (Fig 1D).
(§2) PathHunter™ GPCR Arrestin and cAMP Hunter™ cell lines (DiscoveRx Corp., Fremont, CA) were used to assay G-protein-dependent signaling and β-arrestin recruitment to APJ. CHO-K1 cells stably expressing APJ (CHO-K1-APJ) or AT1 (CHO-K1-AT1) with β-arrestin/β-galactosidase enzyme fragment complementation constructs were maintained in HAM's F-12 medium (Hyclone, Logan, UT) supplemented with 10% FBS, 1X Penicillin-Streptomycin-Glutamine (Invitrogen; Carlsbad, CA), 300 μg/ml hygromycin (EMD Biosciences, San Diego, CA), and 800 μg/ml Geneticin (Cellgro, Manassas, VA). Primary Human Retinal Microvascular Endothelial Cells (HRECs) were purchased from Cell Systems (Kirkland, WA) and maintained in Complete Classic Medium with CultureBoost-R™ (Cell Systems). Parent CHO-K1 cells were obtained from ATCC and maintained in HAM’s F-12 medium supplemented with 10% FBS, and1X Penicillin-Streptomycin-Glutamine (Invitrogen; Carlsbad, CA). All cells were incubated at 37°C (5% CO2, 95% relative humidity) and maintained at less than 70% to 80% confluence (approximately 75,000 cells/cm^2). Cell heterologously expressing APJ or AT1 were not used after 10 passages. HRECs were not used in any experiments after five passages.
(§3) All reagents unless otherwise specified are components of the cAMP HitHunter (DiscoveRx) kit. Ligand Buffer + 60 μM Forskolin (Cayman Chemical, Ann Arbor, MI) was made fresh on the day of the experiment and used for the dilution of positive and negative controls as well as all peptides. CHO-K1-APJ cells were dispensed into a 1536-well tissue culture microplate (Corning, Corning, NY) using a Multidrop at a seeding density of 1,000 cells/well and returned to the incubator. The next day, the cell culture media was removed and replaced with 15 μl/well of assay buffer (1X HBSS, 10 mM HEPES) containing anti-cAMP antibody (DiscoveRx). […] Plates were incubated at room temperature in the dark for 3 hours prior to chemiluminescence detection on an EnVision (Perkin Elmer) using a counting time of 1 s/well.

PAMPA permeability = type: in vitro ADME
LogD (pH 7.4) = type: physicochemical
[1] = Plasma-protein binding, mouse; type: in vitro ADME
[2] = Plasma-protein binding, rat; type: in vitro ADME
[3] = Hepatic microsome stability, mouse; type: in vitro ADME; settings: liver microsomes, pH 7.4, single phase, read-out: Hepatic microsome stability T1/2
Description: (§4) Hepatic microsomes stability assays were performed as reported before. […] After preincubation at 37°C for 10 min, enzyme reactions were initiated by adding 120 μL of NADPH-generating system (2 mM NADP^+, 10 mM glucose-6-phosphate, 0.4 U/ml glucose-6-phosphate dehydrogenase, and 5 mM MgCl2) in the presence of 100 mM potassium phosphate buffer (pH 7.4). The final concentration of each model compound used was 1 μM. The microsomal concentrations used were 1.0 mg/mL. Compounds were incubated in microsomes for 0, 5, 15, 30 and 60 min. The reactions were stopped by the addition of ice cold ACN and the reaction mixtures were centrifuged at 10,000g for 10 min before the supernatant was removed for analysis.
(§5) Except for the primary assay in the HTS campaign, all experiments were repeated at least three times. Results are expressed as mean ± SEM. The Mann-Whitney test was used to determine statistical significance of the densitometry data of Western blot analysis. Unpaired two-tailed Student’s t-test was performed for the significance of the results of ELISA and in vitro tubule formation assay. ANOVA was used to determine the significance in vivo CNV models using the Tukey post-hoc test for multiple comparisons. […] T1/2 was calculated using the best fit curve resulting from non-linear (human) or linear (mouse and rat) regression analyses using Prism 7.

parental CHO-K1 cells = assay: Parental cAMP counter assay (cells lacking APJ); type: cell-based; settings: Cricetulus griseus
Description: as §1, §2, §3

Plasma stability, human = type: in vitro ADME
[4] = Hepatic microsome stability, rat; type: in vitro ADME; settings: liver microsomes, pH 7.4, single phase, read-out: Hepatic microsome stability T1/2
Description: as §4, §5

[5] = Cytotoxicity, ATP-Lite, Fa2N-4 immortalized human hepatocytes; type: cell-based; settings: Fa2N-4 immortalized human hepatocytes
Description: Fa2N-4 immortalized human hepatocytes (Xenotech) or HREC cells were grown to subconfluency in wells of a 96-well plate and exposed to different concentrations of compounds for 24 h after which the cells were washed and the media and compounds replaced. The cells were returned to the incubator for another 24 h. The extent of cell death (cell lysis) was determined by ATP-Lite reagent (Perkin-Elmer).

CCN(CC)Cc1cc(Nc2ccnc3cc(Cl)ccc23)ccc1O [AQ, amodiaquine]
IC50 (APJ): 3.45 ± 0.028 µM | Mode of APJ antagonism (APJ; Ap13 concentration response curves after pre-incubation with AQ, Schild-type analysis): non-competitive APJ antagonist | Papp (PAMPA permeability; Donor pH 5.0, Acceptor pH 7.4, read-out: PAMPA permeability Pe): 3 ×10⁻⁶ cm/s | Papp (PAMPA permeability; Donor pH 6.2, Acceptor pH 7.4, read-out: PAMPA permeability Pe): 9.6 ×10⁻⁶ cm/s | Papp (PAMPA permeability; pH 7.4, Donor pH 7.4, Acceptor pH 7.4, read-out: PAMPA permeability Pe): 54 ×10⁻⁶ cm/s | logD (LogD (pH 7.4)): 2.37 | Plasma-protein binding ([1]; 1 μM): 81.9 % bound | Plasma-protein binding ([1]; 10 μM): 70.8 % bound | Plasma-protein binding ([2]; 1 μM): 75.3 % bound | Plasma-protein binding ([2]; 10 μM): 76.8 % bound | half-life at 1 μM [3]: 39.8 min | IC50 (parental CHO-K1 cells): > 99 µM | Plasma stability (Plasma stability, human): 37.3 % remaining at 3 hrs | half-life at 1 μM [4]: 38.9 min | IC50 at 48 h ([5]; ATP-lite assay, Fa2-N4 cells): > 50 µM | CC50 at 48 h ([5]; Fa2N-4 cells, read-out: Cytotoxicity LC50): > 50 µM
